Measurements taken from patent US20180214388A1, “COMPOSITION AND METHOD FOR REDUCING SCARRING” (priority 2015, published 2018).

How the values were obtained:
[1] = system: cytochrome P450 oxidase enzyme system; settings: metabolized in the liver; cited from earlier work
[2] = system: subjects with existing scars, incision after surgical removal; test: Caffeine cream for scar reduction or prevention after surgical excision (Example 3); type: in vivo, human; settings: topical cream; both subjects felt caffeine effects
Source text: Two subjects with existing scars were chosen for the study.
Subject #1 presented with a skin growth on the left mid cheek.
Subject #2 presented with an older mid-forehead scar. […] The subject underwent a third revision of the scar.

wound = test: Wound healing with application of resveratrol; type: in vivo
[3] = cited from earlier work

## Cn1c(=O)[nH]c2ncn(C)c2c1=O [Paraxanthine, 1,7-dimethyl-3H-purine-2,6-dione]
[1]
  share of caffeine metabolites: 84%

## Cn1c(=O)c2c(ncn2C)n(C)c1=O [caffeine, 1,3,7-trimethylpurine-2,6-dione]
[2]
  uptake from application site and distribution: rapidly taken from the application site and distributed throughout the body

## Oc1ccc(/C=C/c2cc(O)cc(O)c2)cc1 [resveratrol, trans-3,4′,5-trihydroxystilbene]
wound
  resulting scar: attenuated scar
  time to epithelialization: ≤ 24 h
[3]
  solubility in water: very low solubility

## Cn1c(=O)c2[nH]cnc2n(C)c1=O [theophylline, 1,3-dimethyl-7H-purine-2,6-dione, reference compound]
[1]
  share of caffeine metabolites: 4%
